In ChEMBL document CHEMBL3045015, “Synthesis and physiological evaluation of new N-nitroso-2,6-dicarbethoxy-3,5-diaryltetrahydro-1,4-thiazine-1,1-dioxides” (Med Chem Res, 2012) one finds Ratio, zone of inhibition and Activity data, which are given here for 16 compounds.

The test system of data set [1] is Escherichia coli. Kind of data set: Ratio of compound IZ to amikacin IZ for Escherichia coli MTCC 722 at 10 ug/ml by disk diffusion method. The data set is classed as functional.
Data set [2] deals with Streptococcus pyogenes. Kind of data set: Antibacterial activity against Streptococcus pyogenes MTCC 389 at 10 ug/ml by disk diffusion method. The data set is classed as functional. The conditions noted are these: read-out: IZ.
The subject of data set [3] is Staphylococcus aureus. The experiment in a line: Antibacterial activity against Staphylococcus aureus MTCC 96 at 10 ug/ml by disk diffusion method. The data set is classed as functional. The note with it: read-out: IZ.
The subject of data set [4] is Pseudomonas aeruginosa. The experiment in a line: Antibacterial activity against Pseudomonas aeruginosa […] at 10 ug/ml by disk diffusion method. The data set is classed as functional. The conditions noted are these: read-out: IZ.
Data set [5] concerns Streptococcus pyogenes. The experiment in a line: Ratio of compound IZ to amikacin IZ for Streptococcus pyogenes MTCC 389 at 10 ug/ml by disk diffusion method. The data set is classed as functional.
Data set [6] deals with Escherichia coli. The experiment in a line: Antibacterial activity against Escherichia coli MTCC 722 at 10 ug/ml by disk diffusion method. The data set is classed as functional. The conditions noted are these: read-out: IZ.
The test system of data set [7] is Pseudomonas aeruginosa. Kind of data set: Ratio of compound IZ to amikacin IZ for Pseudomonas aeruginosa […] at 10 ug/ml by disk diffusion method. The data set is classed as functional.
For data set [8], the system named is Mus musculus. Kind of data set: Acute toxicity in Mus musculus (mouse) at 300 mg/kg. The data set is classed as organism-based. The note with it: in vivo. Set-up: dose 300 mg/kg.
Data set [9] has as its system Staphylococcus aureus. Kind of data set: Ratio of compound IZ to amikacin IZ for Staphylococcus aureus MTCC 96 at 10 ug/ml by disk diffusion method. The data set is classed as functional.
The subject of data set [10] is Candida albicans. Kind of data set: Antifungal activity against Candida albicans MTCC 227 at 10 ug/ml by disk diffusion method. The data set is classed as functional. The conditions noted are these: read-out: IZ.
In data set [11] the test system is Candida albicans. Kind of data set: Ratio of compound IZ to nystatin IZ for Candida albicans MTCC 227 at 10 ug/ml by disk diffusion method. The data set is classed as functional.

Take `CCOC(=O)C1C(c2ccc[nH]2)N(N=O)C(c2ccc[nH]2)C(C(=O)OCC)S1(=O)=O` (centres undefined): the Ratio in data set [1] is 0.65; in [5], 0.7; in [7], 0.71; in data set [9], 0.72; in data set [11] it was 0.58. Besides, the zone of inhibition at 10 µg/mL in data set [2] was 14 mm; in [3], 13 mm; in [4], 12 mm; in data set [6], 11 mm; in data set [10], 11 mm. Further, the Activity result in data set [8] is “Non-toxic”.
With `CCOC(=O)C1C(c2cc3ccccc3nc2Cl)N(N=O)C(c2cc3ccccc3nc2Cl)C(C(=O)OCC)S1(=O)=O` (centres undefined), the Ratio was 0.53 in data set [1]; 0.6 in data set [5]; 0.59 in [7]; 0.78 in data set [9]; 0.95 in data set [11]. In addition, the zone of inhibition at 10 µg/mL came to 12 mm in [2]; 14 mm in [3]; 10 mm in [4]; 9 mm in data set [6]; 18 mm in data set [10]. For the same compound, the Activity result in [8] is “Non-toxic”.
Turning to `CCOC(=O)C1C(c2c[nH]c3ccccc23)N(N=O)C(c2c[nH]c3ccccc23)C(C(=O)OCC)S1(=O)=O` (centres undefined), the Ratio in data set [1] is listed as 0.71; in data set [5] it was 0.45; in data set [7], 0.65; in data set [9], 0.44; in data set [11], 0.79. The zone of inhibition at 10 µg/mL worked out at 9 mm in data set [2]; 8 mm in data set [3]; 11 mm in data set [4]; 12 mm in data set [6]; 15 mm in [10]. Moreover, the Activity entry in [8] was “Non-toxic”.
`CCOC(=O)C1C(c2ccc(OC)c(OC)c2)N(N=O)C(c2ccc(OC)c(OC)c2)C(C(=O)OCC)S1(=O)=O` (centres undefined): the Ratio was 0.76 in data set [1]; 0.4 in data set [5]; 0.65 in data set [7]; 0.67 in data set [9]; 0.74 in data set [11]. Besides, the zone of inhibition at 10 µg/mL in data set [2] turned out to be 8 mm; in data set [3], 12 mm; in data set [4], 11 mm; in data set [6] it was 13 mm; in data set [10], 14 mm. Besides, the Activity entry in data set [8] is recorded as “Non-toxic”.
Take `CCOC(=O)C1C(c2ccc(Cl)cc2)N(N=O)C(c2ccc(Cl)cc2)C(C(=O)OCC)S1(=O)=O` (centres undefined): the Ratio is given as 0.76 in [1]; 0.5 in data set [5]; 0.71 in data set [7]; 0.56 in data set [9]; 0.84 in [11]. Also, the zone of inhibition at 10 µg/mL came to 10 mm in [2]; 10 mm in data set [3]; 12 mm in data set [4]; 13 mm in [6]; 16 mm in data set [10]. Moreover, the Activity result in [8] is “Non-toxic”.
For the compound `CCOC(=O)C1C(c2cccc([N+](=O)[O-])c2)N(N=O)C(c2cccc([N+](=O)[O-])c2)C(C(=O)OCC)S1(=O)=O` (centres undefined), the Ratio in data set [1] amounted to 0.82; in data set [5] it was 0.45; in data set [7] it was 0.88; in data set [9] it was 0.67; in data set [11], 0.69. Further, the zone of inhibition at 10 µg/mL in data set [2] came out at 9 mm; in data set [3], 12 mm; in data set [4], 15 mm; in data set [6] it was 14 mm; in data set [10], 13 mm. In addition, the Activity result in [8] is “Non-toxic”.
Turning to `CCOC(=O)C1C(c2ccc([N+](=O)[O-])cc2)N(N=O)C(c2ccc([N+](=O)[O-])cc2)C(C(=O)OCC)S1(=O)=O` (centres undefined), the Ratio in data set [1] amounted to 1; in [5], 0.85; in data set [7], 0.65; in [9], 0.72; in data set [11] it was 0.63. Also, the zone of inhibition at 10 µg/mL in data set [2] is 17 mm; in data set [3], 13 mm; in data set [4], 11 mm; in data set [6], 17 mm; in data set [10], 12 mm. In data set [8], the Activity entry was “Non-toxic”.
As for `CCOC(=O)C1C(c2ccc(OC)cc2)N(N=O)C(c2ccc(OC)cc2)C(C(=O)OCC)S1(=O)=O` (centres undefined), the Ratio in data set [1] came to 0.71; in data set [5] it was 0.65; in data set [7], 1.11; in [9], 0.61; in [11] it was 0.69. For the same compound, the zone of inhibition at 10 µg/mL in [2] was 13 mm; in data set [3] it was 11 mm; in data set [4] it was 18 mm; in data set [6], 12 mm; in data set [10] it was 13 mm. The Activity result in [8] is listed as “Non-toxic”.
Regarding `CCOC(=O)C1C(c2ccc(C)cc2)N(N=O)C(c2ccc(C)cc2)C(C(=O)OCC)S1(=O)=O` (centres undefined), the Ratio turned out to be 1 in data set [1]; 0.85 in [5]; 0.53 in data set [7]; 0.61 in [9]; 0.58 in [11]. Moreover, the zone of inhibition at 10 µg/mL in data set [2] worked out at 17 mm; in data set [3], 11 mm; in [4], 9 mm; in data set [6], 17 mm; in [10], 11 mm. In addition, the Activity result in data set [8] was “Non-toxic”.
As for `CCOC(=O)C1C(c2ccco2)N(N=O)C(c2ccco2)C(C(=O)OCC)S1(=O)=O` (centres undefined), the Ratio was 0.88 in [1]; 0.55 in [5]; 0.59 in data set [7]; 0.67 in data set [9]; 0.74 in [11]. The zone of inhibition at 10 µg/mL in data set [2] was found to be 11 mm; in data set [3] it was 12 mm; in data set [4], 10 mm; in data set [6], 15 mm; in data set [10], 14 mm. In data set [8], the Activity result is listed as “Non-toxic”.
On to `CCOC(=O)C1C(c2cccs2)N(N=O)C(c2cccs2)C(C(=O)OCC)S1(=O)=O` (centres undefined), for which the Ratio in data set [1] was found to be 0.76; in data set [5], 0.75; in data set [7], 0.82; in data set [9] it was 0.94; in data set [11], 1.11. In addition, the zone of inhibition at 10 µg/mL in data set [2] is 15 mm; in data set [3], 17 mm; in data set [4], 14 mm; in [6], 13 mm; in data set [10], 20 mm. Moreover, in data set [8], the Activity result is recorded as “Non-toxic”.
Take `CCOC(=O)C1C(c2ccsc2)N(N=O)C(c2ccsc2)C(C(=O)OCC)S1(=O)=O` (centres undefined): the Ratio in data set [1] was 0.82; in [5], 0.45; in [7], 0.76; in data set [9], 0.83; in data set [11], 0.74. The zone of inhibition at 10 µg/mL was determined as 9 mm in data set [2]; 15 mm in data set [3]; 13 mm in data set [4]; 14 mm in data set [6]; 14 mm in data set [10]. Besides, the Activity result in data set [8] was “Non-toxic”.
For the compound `CCOC(=O)C1C(c2ccccn2)N(N=O)C(c2ccccn2)C(C(=O)OCC)S1(=O)=O` (centres undefined), the Ratio in data set [1] is given as 0.59; in data set [5], 0.55; in data set [7] it was 0.53; in data set [9], 0.72; in data set [11], 0.63. The zone of inhibition at 10 µg/mL came out at 11 mm in data set [2]; 13 mm in data set [3]; 9 mm in data set [4]; 10 mm in [6]; 12 mm in data set [10]. The Activity entry in data set [8] is “Non-toxic”.
On to `CCOC(=O)C1C(c2cccnc2)N(N=O)C(c2cccnc2)C(C(=O)OCC)S1(=O)=O` (centres undefined), for which the Ratio was 0.71 in data set [1]; 0.4 in data set [5]; 0.65 in data set [7]; 0.78 in data set [9]; 0.79 in data set [11]. The zone of inhibition at 10 µg/mL amounted to 8 mm in data set [2]; 14 mm in data set [3]; 11 mm in data set [4]; 12 mm in [6]; 15 mm in data set [10]. Besides, the Activity result in data set [8] is “Non-toxic”.
Consider `CCOC(=O)C1C(c2ccc3c(c2)OCO3)N(N=O)C(c2ccc3c(c2)OCO3)C(C(=O)OCC)S1(=O)=O` (centres undefined), for which the Ratio in data set [1] is 0.47; in [5], 0.55; in data set [7] it was 0.71; in data set [9], 0.5; in data set [11], 0.53. The zone of inhibition at 10 µg/mL in data set [2] amounted to 11 mm; in data set [3] it was 9 mm; in data set [4], 12 mm; in data set [6], 8 mm; in data set [10], 10 mm. The Activity entry in data set [8] is “Non-toxic”.
As for `NCC[C@H](O)C(=O)N[C@@H]1C[C@H](N)[C@@H](O[C@H]2O[C@H](CN)[C@@H](O)[C@H](O)[C@H]2O)[C@H](O)[C@H]1O[C@H]1O[C@H](CO)[C@@H](O)[C@H](N)[C@H]1O` [AMIKACIN], the zone of inhibition at 10 µg/mL in [2] was found to be 20 mm; in data set [3], 18 mm; in data set [4], 17 mm; in data set [6], 17 mm.
